Several values for one entry are separate records, joined by “and”; a condition that tells them apart may be missing. Identical values can stand only once. ± gives the expanded uncertainty stated by the source.
Test: xn = mol fraction of the nth substance listed
Conditions: 101.3 kPa, Liquid

For `N#Cc1ccccc1` [benzonitrile] + Cc1cc(C)cc(C)c1, the mass density (298.15 K, x1 = 0.073) was 869.06 ± 0.46 kg/m3, the “excess molar heat capacity” value (298.15 K, x1 = 0.0754) was 0.726 ± 0.052 J/K/mol and the “excess molar heat capacity” value (298.15 K, x1 = 0.1029) was 0.966 ± 0.052 J/K/mol. For the same compound, the mass density (298.15 K, x1 = 0.1412) was 876.92 ± 0.43 kg/m3, the mass density (298.15 K, x1 = 0.1917) was 882.87 ± 0.41 kg/m3 and the “excess molar heat capacity” value (298.15 K, x1 = 0.2104) was 1.56 ± 0.054 J/K/mol. The “excess molar heat capacity” value (298.15 K, x1 = 0.283) was 1.84 ± 0.055 J/K/mol, the mass density (298.15 K, x1 = 0.2955) was 895.5 ± 0.38 kg/m3 and the mass density (298.15 K, x1 = 0.3596) was 903.59 ± 0.35 kg/m3. The “excess molar heat capacity” value (298.15 K, x1 = 0.381) was 2.016 ± 0.055 J/K/mol, the mass density (298.15 K, x1 = 0.4531) was 915.84 ± 0.32 kg/m3 and the “excess molar heat capacity” value (298.15 K, x1 = 0.4702) was 1.987 ± 0.055 J/K/mol. For the same compound, the mass density (298.15 K, x1 = 0.5128) was 923.9 ± 0.3 kg/m3, the “excess molar heat capacity” value (298.15 K, x1 = 0.5479) was 1.864 ± 0.055 J/K/mol and the mass density (298.15 K, x1 = 0.6098) was 937.51 ± 0.27 kg/m3. The “excess molar heat capacity” value (298.15 K, x1 = 0.6441) was 1.563 ± 0.054 J/K/mol, the mass density (298.15 K, x1 = 0.7005) was 950.89 ± 0.23 kg/m3 and the “excess molar heat capacity” value (298.15 K, x1 = 0.712) was 1.3 ± 0.053 J/K/mol. For the same compound, the mass density (298.15 K, x1 = 0.7895) was 964.64 ± 0.2 kg/m3, the “excess molar heat capacity” value (298.15 K, x1 = 0.8092) was 0.861 ± 0.052 J/K/mol and the mass density (298.15 K, x1 = 0.879) was 979.23 ± 0.17 kg/m3. For the same compound, the “excess molar heat capacity” value (298.15 K, x1 = 0.9041) was 0.428 ± 0.051 J/K/mol, the “excess molar heat capacity” value (298.15 K, x1 = 0.9501) was 0.177 ± 0.05 J/K/mol and the mass density (298.15 K, x1 = 0.9536) was 991.98 ± 0.15 kg/m3. For the same compound, the mass density (298.15 K, x1 = 1) was 1000.25 ± 0.13 kg/m3, the mass density (308.15 K, x1 = 0.073) was 860.02 ± 0.47 kg/m3 and the mass density (308.15 K, x1 = 0.1412) was 867.88 ± 0.45 kg/m3. It also gave a mass density (308.15 K, x1 = 0.1917) of 873.78 ± 0.43 kg/m3, a mass density (308.15 K, x1 = 0.2955) of 886.4 ± 0.39 kg/m3 and a mass density (308.15 K, x1 = 0.3596) of 894.43 ± 0.37 kg/m3. It also gave a mass density (308.15 K, x1 = 0.4531) of 906.58 ± 0.33 kg/m3, a mass density (308.15 K, x1 = 0.5128) of 914.75 ± 0.31 kg/m3 and a mass density (308.15 K, x1 = 0.6098) of 928.28 ± 0.28 kg/m3. The mass density (308.15 K, x1 = 0.7005) was 941.57 ± 0.25 kg/m3, the mass density (308.15 K, x1 = 0.7895) was 955.31 ± 0.21 kg/m3 and the mass density (308.15 K, x1 = 0.879) was 969.79 ± 0.18 kg/m3. It also gave a mass density (308.15 K, x1 = 0.9536) of 982.49 ± 0.16 kg/m3 and a mass density (308.15 K, x1 = 1) of 990.67 ± 0.15 kg/m3.
With `N#Cc1ccccc1` [benzonitrile] + Cc1ccc(C)c(C)c1 the mass density (298.15 K, x1 = 0.0712) was 879.01 ± 0.45 kg/m3, the “excess molar heat capacity” value (298.15 K, x1 = 0.0829) was 0.643 ± 0.052 J/K/mol and the mass density (298.15 K, x1 = 0.1322) was 885.6 ± 0.42 kg/m3. The “excess molar heat capacity” value (298.15 K, x1 = 0.1409) was 0.998 ± 0.053 J/K/mol and 0.981 ± 0.052 J/K/mol, the mass density (298.15 K, x1 = 0.1765) was 890.46 ± 0.41 kg/m3 and the “excess molar heat capacity” value (298.15 K, x1 = 0.2844) was 1.571 ± 0.054 J/K/mol and 1.511 ± 0.054 J/K/mol. For the same compound, the mass density (298.15 K, x1 = 0.2874) was 902.94 ± 0.37 kg/m3, the mass density (298.15 K, x1 = 0.3441) was 909.49 ± 0.35 kg/m3 and the “excess molar heat capacity” value (298.15 K, x1 = 0.377) was 1.621 ± 0.054 J/K/mol. The mass density (298.15 K, x1 = 0.3967) was 915.71 ± 0.33 kg/m3, the mass density (298.15 K, x1 = 0.445) was 921.57 ± 0.31 kg/m3 and the “excess molar heat capacity” value (298.15 K, x1 = 0.4558) was 1.622 ± 0.054 J/K/mol. For the same compound, the mass density (298.15 K, x1 = 0.5283) was 932.03 ± 0.29 kg/m3, the “excess molar heat capacity” value (298.15 K, x1 = 0.5359) was 1.475 ± 0.054 J/K/mol and the mass density (298.15 K, x1 = 0.5861) was 939.54 ± 0.27 kg/m3. For the same compound, the mass density (298.15 K, x1 = 0.6329) was 945.69 ± 0.25 kg/m3, the “excess molar heat capacity” value (298.15 K, x1 = 0.6367) was 1.241 ± 0.053 J/K/mol and the mass density (298.15 K, x1 = 0.6879) was 953.12 ± 0.23 kg/m3. The “excess molar heat capacity” value (298.15 K, x1 = 0.6974) was 1.021 ± 0.053 J/K/mol, the “excess molar heat capacity” value (298.15 K, x1 = 0.7772) was 0.753 ± 0.052 J/K/mol and the mass density (298.15 K, x1 = 0.7796) was 966.07 ± 0.2 kg/m3. The mass density (298.15 K, x1 = 0.7804) was 966.21 ± 0.2 kg/m3, the mass density (298.15 K, x1 = 0.8187) was 971.88 ± 0.19 kg/m3 and the mass density (298.15 K, x1 = 0.9027) was 984.6 ± 0.16 kg/m3. For the same compound, the “excess molar heat capacity” value (298.15 K, x1 = 0.9039) was 0.294 ± 0.051 J/K/mol, the mass density (298.15 K, x1 = 0.9079) was 985.41 ± 0.16 kg/m3 and the “excess molar heat capacity” value (298.15 K, x1 = 0.9431) was 0.176 ± 0.05 J/K/mol. The mass density (298.15 K, x1 = 0.9687) was 995.12 ± 0.14 kg/m3, the mass density (298.15 K, x1 = 0.9822) was 997.27 ± 0.14 kg/m3 and the mass density (298.15 K, x1 = 1) was 1000.25 ± 0.13 kg/m3. It also gave a mass density (308.15 K, x1 = 0.1322) of 876.48 ± 0.44 kg/m3, a mass density (308.15 K, x1 = 0.1765) of 881.29 ± 0.42 kg/m3 and a mass density (308.15 K, x1 = 0.2874) of 893.72 ± 0.38 kg/m3. It also gave a mass density (308.15 K, x1 = 0.3441) of 900.27 ± 0.36 kg/m3, a mass density (308.15 K, x1 = 0.3967) of 906.56 ± 0.34 kg/m3 and a mass density (308.15 K, x1 = 0.445) of 912.35 ± 0.33 kg/m3. The mass density (308.15 K, x1 = 0.5283) was 922.7 ± 0.3 kg/m3, the mass density (308.15 K, x1 = 0.5861) was 930.13 ± 0.28 kg/m3 and the mass density (308.15 K, x1 = 0.6329) was 936.31 ± 0.26 kg/m3. For the same compound, the mass density (308.15 K, x1 = 0.6879) was 943.75 ± 0.24 kg/m3, the mass density (308.15 K, x1 = 0.7796) was 956.62 ± 0.21 kg/m3 and the mass density (308.15 K, x1 = 0.7804) was 956.8 ± 0.21 kg/m3. The mass density (308.15 K, x1 = 0.8187) was 962.37 ± 0.2 kg/m3, the mass density (308.15 K, x1 = 0.9027) was 975.04 ± 0.17 kg/m3 and the mass density (308.15 K, x1 = 0.9079) was 975.88 ± 0.17 kg/m3. It also gave a mass density (308.15 K, x1 = 1) of 990.67 ± 0.15 kg/m3.

Source: the NIST ThermoML archive (doi:10.1016/j.jct.2006.09.007)
